Assay [1] has as its target T1, Melanocyte-stimulating hormone receptor (Homo sapiens, UniProt Q01726). The assay is described as follows: (§1) Agonist activity against human melanocortin receptor hMC1R at 50% maximum cAMP accumulation. It is filed as functional. Background: cAMP levels reflect the balance of adenylyl cyclase and phosphodiesterase activity.
Target sequence in this assay (Q01726 whole entry): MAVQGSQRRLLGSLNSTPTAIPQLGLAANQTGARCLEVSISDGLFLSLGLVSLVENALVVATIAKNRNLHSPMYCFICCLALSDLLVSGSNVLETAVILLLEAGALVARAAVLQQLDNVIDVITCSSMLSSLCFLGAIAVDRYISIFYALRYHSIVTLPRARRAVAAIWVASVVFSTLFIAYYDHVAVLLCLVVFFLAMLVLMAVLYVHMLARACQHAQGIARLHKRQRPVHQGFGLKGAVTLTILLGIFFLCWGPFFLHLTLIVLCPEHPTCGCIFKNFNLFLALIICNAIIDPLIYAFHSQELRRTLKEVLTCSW
Assay [2] concerns the target T1, Melanocyte-stimulating hormone receptor. Put plainly: Binding affinity towards human melanocortin receptor hMC1R by using radioligand NDP-MSH.
Target sequence in this assay (Q01726 whole entry): as above
The target is the same in assay [3]. The assay is described as follows: Agonist activity against human melanocortin receptor hMC1R. It counts as functional.
Target sequence in this assay (Q01726 whole entry): as above
The target of assay [4] is T2, Melanocortin receptor 4 (Homo sapiens, UniProt P32245). The assay is described as follows: Agonist activity against human melanocortin receptor hMC4R. It is filed as functional.
Assay [5] deals with T2, Melanocortin receptor 4. Put plainly: Binding affinity towards human melanocortin receptor hMC4R by using radioligand NDP-MSH.
Assay [6] addresses T3, Melanocortin receptor 5 (Homo sapiens, UniProt P33032). Put plainly: Binding affinity towards human melanocortin receptor hMC5R by using radioligand NDP-MSH.
Assay [7] has as its target T4, Melanocortin receptor 3 (Homo sapiens, UniProt P41968). The assay is described as follows: Binding affinity towards human melanocortin receptor hMC3R by using radioligand NDP-MSH.
Assay [8] addresses T3, Melanocortin receptor 5. The assay is described as follows: Agonist activity against human melanocortin receptor hMC5R measured as percent cAMP accumulation at the concentration of 50 uM. It counts as functional.
In assay [9] the target is T4, Melanocortin receptor 3. Put plainly: Agonist activity against human melanocortin receptor hMC3R measured as percent cAMP accumulation at the concentration of 50 uM. It is filed as functional.
For assay [10], the target named is T1, Melanocyte-stimulating hormone receptor. Described as §1. It counts as functional. This is another data set of the same source.
Target sequence in this assay (Q01726 whole entry, looked up): as the sequence (Q01726 whole entry) above
For assay [11] the target is unchanged. The assay is described as follows: Percent inhibition of human melanocortin receptor hMC1R at the concentration of 50 uM.
Target sequence in this assay (Q01726 whole entry, looked up): as the sequence (Q01726 whole entry) above
Assay [12] concerns the target T2, Melanocortin receptor 4. Put plainly: Percent inhibition of human melanocortin receptor hMC4R at the concentration of 50 uM.
Assay [13] has as its target T2, Melanocortin receptor 4. The assay is described as follows: Binding affinity towards human melanocortin receptor hMC4R by using radioligand NDP-MSH; not determined.

Structures are written as SMILES.

The term EC50 denotes the concentration giving half of the maximal effect. The low end stands for an effect from little substance, the high end for a need for much substance. The term IC50 denotes the concentration that gives 50% inhibition. A lower IC50 goes with greater potency. For orientation: inhibition means the drop in the measured response relative to a control, in per cent. Low readings indicate a response near the control, high ones a response far below the control.

T4 sequence (P41968 whole entry): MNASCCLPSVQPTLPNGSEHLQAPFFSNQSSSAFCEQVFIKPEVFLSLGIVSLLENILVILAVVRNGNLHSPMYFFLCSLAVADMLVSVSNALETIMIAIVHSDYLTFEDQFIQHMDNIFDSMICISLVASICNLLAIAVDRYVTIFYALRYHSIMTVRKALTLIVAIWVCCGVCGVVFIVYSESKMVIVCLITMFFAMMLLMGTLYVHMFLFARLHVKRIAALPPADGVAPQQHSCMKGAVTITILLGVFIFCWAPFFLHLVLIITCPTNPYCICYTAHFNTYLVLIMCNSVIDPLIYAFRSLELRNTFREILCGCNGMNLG
T3 sequence (P33032 whole entry): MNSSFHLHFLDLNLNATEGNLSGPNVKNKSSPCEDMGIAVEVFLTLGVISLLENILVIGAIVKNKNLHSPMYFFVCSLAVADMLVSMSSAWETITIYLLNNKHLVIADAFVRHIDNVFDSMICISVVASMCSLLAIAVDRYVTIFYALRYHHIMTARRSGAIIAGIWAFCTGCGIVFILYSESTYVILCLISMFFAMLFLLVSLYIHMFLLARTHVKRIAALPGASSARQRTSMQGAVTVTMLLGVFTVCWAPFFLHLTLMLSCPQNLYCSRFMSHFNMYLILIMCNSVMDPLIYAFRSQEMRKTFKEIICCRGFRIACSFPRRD
T2 sequence (P32245 whole entry): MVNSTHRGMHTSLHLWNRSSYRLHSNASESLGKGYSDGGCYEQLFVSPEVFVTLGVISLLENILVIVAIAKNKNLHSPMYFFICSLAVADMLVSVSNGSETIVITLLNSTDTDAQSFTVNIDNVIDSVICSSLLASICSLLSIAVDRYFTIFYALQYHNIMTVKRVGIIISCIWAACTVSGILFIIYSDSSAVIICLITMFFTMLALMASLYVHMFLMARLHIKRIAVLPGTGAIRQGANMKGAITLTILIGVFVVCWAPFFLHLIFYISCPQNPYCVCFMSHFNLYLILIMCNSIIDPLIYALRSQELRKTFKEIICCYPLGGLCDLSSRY

For `CCCC(=O)N[C@@H](Cc1cnc[nH]1)C(=O)N[C@H](Cc1ccccc1)C(=O)N[C@@H](CCCNC(=N)N)C(=O)N[C@@H](Cc1c[nH]c2ccccc12)C(=O)NCC(N)=O`, the half-maximal effective concentration (EC50) was 10 nM in [1], 10 nM in assay [3] and 20 nM at Melanocortin receptor 4 [4]. Also, the half-maximal inhibitory concentration (IC50) in assay [2] came out at 580 nM; on Melanocortin receptor 4 [5], 150 nM; at Melanocortin receptor 5 [6] it was 13300 nM; at Melanocortin receptor 3 [7], 4000 nM.

As for `CCCC(=O)N[C@@H](Cc1c[nH]cn1)C(=O)N[C@H](Cc1ccccc1)C(=O)N[C@@H](CCCN=C(N)N)C(=O)N[C@@H](Cc1c[nH]c2ccccc12)C(=O)NCC(N)=O`, the Accumulation at Melanocortin receptor 5 [8] and at Melanocortin receptor 3 [9] was 0% in each case.

As for `CCCCC(=O)NC1(C(=O)NC(Cc2ccccc2)C(=O)N[C@@H](CCCNC(=N)N)C(=O)N[C@@H](Cc2c[nH]c3ccccc23)C(=O)NCC(N)=O)CCc2c(C)cccc2C1` (single isomer, unassigned), the EC50 was 1220 nM in assay [3] and 35 nM on Melanocortin receptor 4 [4].

As to `CCCCC(=O)NC1(C(=O)NC(Cc2ccccc2)C(=O)N[C@@H](CCCNC(=N)N)C(=O)N[C@@H](Cc2c[nH]c3ccccc23)C(=O)NCC(N)=O)CCc2c(cccc2OC(C)C)C1` (single isomer, unassigned), the results for the EC50 (in [3]; at Melanocortin receptor 4 [4]) were 680 nM and 130 nM, respectively.

Regarding `CCCCC(=O)NC1(C(=O)NC(Cc2ccccc2)C(=O)N[C@@H](CCCNC(=N)N)C(=O)N[C@@H](Cc2c[nH]c3ccccc23)C(=O)NCC(N)=O)CCc2c(CC)cccc2C1` (single isomer, unassigned), the figures for the EC50 (in assay [3]; at Melanocortin receptor 4 [4]) were 195 nM and 24 nM, respectively.

Regarding `CCCCC(=O)NC1(C(=O)NC(Cc2ccccc2)C(=O)N[C@@H](CCCN=C(N)N)C(=O)N[C@@H](Cc2c[nH]c3ccccc23)C(=O)NCC(N)=O)CCc2c(Br)cccc2C1` (single isomer, unassigned), the figures for the Accumulation (at Melanocortin receptor 5 [8]; in assay [10]; on Melanocortin receptor 3 [9]) were 0%, 75% and 0%, respectively. Besides, the IC50 in assay [2] is 4900 nM; on Melanocortin receptor 4 [5] it was 200 nM. For the same molecule, the half-maximal effective concentration (EC50) on Melanocortin receptor 4 [4] is 33 nM. In [11], the inhibition was found to be 75%.

Consider `CCCC(=O)N[C@@H](C)C(=O)NC(Cc1ccccc1)C(=O)N[C@@H](CCCN=C(N)N)C(=O)N[C@@H](Cc1c[nH]c2ccccc12)C(=O)NCC(N)=O` (single isomer, unassigned), for which the EC50 is 230 nM in [3] and 180 nM on Melanocortin receptor 4 [4].

With `CCCCC(=O)NC1(C(=O)NC(Cc2ccccc2)C(=O)N[C@@H](CCCNC(=N)N)C(=O)N[C@@H](Cc2c[nH]c3ccccc23)C(=O)NCC(N)=O)CCc2c(Cl)cccc2C1` (single isomer, unassigned), the half-maximal effective concentration (EC50) in assay [3] was 1400 nM; at Melanocortin receptor 4 [4] it was 600 nM.

Consider `CCCCC(=O)NC1(C(=O)NC(Cc2ccccc2)C(=O)N[C@@H](CCCNC(=N)N)C(=O)N[C@@H](Cc2c[nH]c3ccccc23)C(=O)NCC(N)=O)CCc2c(cccc2OC)C1` (single isomer, unassigned), for which the concentration for a half-maximal effect (EC50) in [3] worked out at 1480 nM; on Melanocortin receptor 4 [4], 90 nM.

Consider `CCCCC(=O)NC1(C(=O)NC(Cc2ccccc2)C(=O)N[C@@H](CCCNC(=N)N)C(=O)N[C@@H](Cc2c[nH]c3ccccc23)C(=O)NCC(N)=O)CCc2c(cccc2C(C)C)C1` (single isomer, unassigned), for which the results for the EC50 (in [3]; at Melanocortin receptor 4 [4]) were 295 nM and 13 nM, respectively.

As for `CCCCC(=O)NC1(C(=O)NC(Cc2ccccc2)C(=O)N[C@@H](CCCN=C(N)N)C(=O)N[C@@H](Cc2c[nH]c3ccccc23)C(=O)NCC(N)=O)CCc2cccc(Br)c2C1` (single isomer, unassigned), the inhibition against Melanocortin receptor 4 [12] was 0%. Also, the EC50 in [3] is 1710 nM.

In the case of `CCCCC(=O)NC1(C(=O)NC(Cc2ccccc2)C(=O)N[C@@H](CCCNC(=N)N)C(=O)N[C@@H](Cc2c[nH]c3ccccc23)C(=O)NCC(N)=O)CCc2c(cccc2OCC)C1` (single isomer, unassigned), the figures for the EC50 (in assay [3]; at Melanocortin receptor 4 [4]) were 990 nM and 120 nM, respectively.

`CCCCC(=O)NC1(C(=O)NC(Cc2ccccc2)C(=O)N[C@@H](CCCN=C(N)N)C(=O)N[C@@H](Cc2c[nH]c3ccccc23)C(=O)NCC(N)=O)CCc2ccc(Br)cc2C1` (single isomer, unassigned): the inhibition at Melanocortin receptor 4 [12] was found to be 40%; in assay [11], 0%.

With `CCCCC(=O)NC1(C(=O)NC(Cc2ccccc2)C(=O)N[C@@H](CCCN=C(N)N)C(=O)N[C@@H](Cc2c[nH]c3ccccc23)C(=O)NCC(N)=O)CCc2cc(Br)ccc2C1` (single isomer, unassigned; form 1) [listing 1 of 2 here], the EC50 in [3] is 3380 nM. That is a single-digit micromolar value.

Molecule `CCCCC(=O)NC1(C(=O)NC(Cc2ccccc2)C(=O)N[C@@H](CCCN=C(N)N)C(=O)N[C@@H](Cc2c[nH]c3ccccc23)C(=O)NCC(N)=O)CCc2cc(Br)ccc2C1` (single isomer, unassigned; form 1) [listing 2 of 2 here] showed an inhibition at Melanocortin receptor 4 [12] of 60%.

As for `CCCCC(=O)NC1(C(=O)NC(Cc2ccccc2)C(=O)N[C@@H](CCCN=C(N)N)C(=O)N[C@@H](Cc2c[nH]c3ccccc23)C(=O)NCC(N)=O)CCc2cc(Br)ccc2C1` (single isomer, unassigned; form 2) [listing 1 of 2 here], a half-maximal effect in [3] (EC50) was put at 4630 nM.

On Melanocortin receptor 4 [12], `CCCCC(=O)NC1(C(=O)NC(Cc2ccccc2)C(=O)N[C@@H](CCCN=C(N)N)C(=O)N[C@@H](Cc2c[nH]c3ccccc23)C(=O)NCC(N)=O)CCc2cc(Br)ccc2C1` (single isomer, unassigned; form 2) [listing 2 of 2 here] returned an inhibition of 50%.

On to `CCCCC(=O)NC1(C(=O)N[C@H](Cc2ccccc2)C(=O)N[C@@H](CCCNC(=N)N)C(=O)N[C@@H](Cc2c[nH]c3ccccc23)C(=O)NCC(N)=O)CCc2c(cccc2N(C)C)C1` (single isomer, unassigned; isomer 1), for which the EC50 in assay [1] was 940 nM; in [3], 940 nM; at Melanocortin receptor 4 [4], 2 nM. Besides, the concentration for half-maximal inhibition (IC50) was found to be 25500 nM in [2] and 25 nM on Melanocortin receptor 4 [5].

For the molecule `CCCCC(=O)NC1(C(=O)N[C@H](Cc2ccccc2)C(=O)N[C@@H](CCCN=C(N)N)C(=O)N[C@@H](Cc2c[nH]c3ccccc23)C(=O)NCC(N)=O)CCc2c(cccc2N(C)C)C1` (single isomer, unassigned; isomer 1), the Accumulation on Melanocortin receptor 5 [8] and at Melanocortin receptor 3 [9] was 0% in each case.

`CCCCC(=O)NC1(C(=O)N[C@H](Cc2ccccc2)C(=O)N[C@@H](CCCNC(=N)N)C(=O)N[C@@H](Cc2c[nH]c3ccccc23)C(=O)NCC(N)=O)CCc2c(Br)cccc2C1` (single isomer, unassigned; isomer 2): the values for the 50% inhibitory concentration (IC50) (in [2]; on Melanocortin receptor 4 [13]) were 5100 nM and 105 nM, respectively. The molecule further registered an EC50 at Melanocortin receptor 4 [4] of 35 nM.

For `CCCCC(=O)NC1(C(=O)N[C@H](Cc2ccccc2)C(=O)N[C@@H](CCCNC(=N)N)C(=O)N[C@@H](Cc2c[nH]c3ccccc23)C(=O)NCC(N)=O)CCc2c(cccc2N(C)C)C1` (single isomer, unassigned; isomer 2), the EC50 in assay [1] amounted to 1850 nM; in [3], 1850 nM; at Melanocortin receptor 4 [4], 16 nM. Besides, the values for the 50% inhibitory concentration (IC50) (in assay [2]; on Melanocortin receptor 4 [5]) were 21700 nM and 150 nM, respectively.

For the molecule `CCCCC(=O)NC1(C(=O)N[C@H](Cc2ccccc2)C(=O)N[C@@H](CCCNC(=N)N)C(=O)N[C@@H](Cc2c[nH]c3ccccc23)C(=O)NCC(N)=O)CCc2c(Cl)cccc2C1` (single isomer, unassigned; isomer 2), the concentration for a half-maximal effect (EC50) in assay [3] is 890 nM; at Melanocortin receptor 4 [4] it was 130 nM.

`CCCCC(=O)NC1(C(=O)N[C@H](Cc2ccccc2)C(=O)N[C@@H](CCCN=C(N)N)C(=O)N[C@@H](Cc2c[nH]c3ccccc23)C(=O)NCC(N)=O)CCc2cccc(Br)c2C1` (single isomer, unassigned; isomer 2): the inhibition at Melanocortin receptor 4 [12] stood at 0%. Moreover, a half-maximal response in assay [3] (EC50) required 2910 nM.

On to `CCCCC(=O)NC1(C(=O)N[C@H](Cc2ccccc2)C(=O)N[C@@H](CCCN=C(N)N)C(=O)N[C@@H](Cc2c[nH]c3ccccc23)C(=O)NCC(N)=O)CCc2c(Br)cccc2C1` (single isomer, unassigned; isomer 2), for which the Accumulation at Melanocortin receptor 5 [8] amounted to 32%; at Melanocortin receptor 3 [9], 0%. In assay [11], this molecule showed an inhibition of 50%.

Consider `CCCCC(=O)NC1(C(=O)N[C@H](Cc2ccccc2)C(=O)N[C@@H](CCCN=C(N)N)C(=O)N[C@@H](Cc2c[nH]c3ccccc23)C(=O)NCC(N)=O)CCc2c(cccc2N(C)C)C1` (single isomer, unassigned; isomer 2), for which the values for the Accumulation on Melanocortin receptor 5 [8] and at Melanocortin receptor 3 [9] were 24% and 0%, respectively.

Turning to `CCCCC(=O)N[C@]1(C(=O)N[C@H](Cc2ccccc2)C(=O)N[C@@H](CCCN=C(N)N)C(=O)N[C@@H](Cc2c[nH]c3ccccc23)C(=O)NCC(N)=O)CCc2ccccc2C1` (stereo in doubt; form 1), the EC50 in assay [3] was 830 nM; at Melanocortin receptor 4 [4], 45 nM.

As to `CCCC(=O)N[C@@]1(C(=O)N[C@H](Cc2ccccc2)C(=O)N[C@@H](CCCN=C(N)N)C(=O)N[C@@H](Cc2c[nH]c3ccccc23)C(=O)NCC(N)=O)CCc2ccccc2C1` (stereo in doubt; form 1), the figures for the 50% effective concentration (EC50) (in [3]; on Melanocortin receptor 4 [4]) were 4380 nM and 290 nM, respectively.

As for `CCCCC(=O)N[C@]1(C(=O)N[C@H](Cc2ccccc2)C(=O)N[C@@H](CCCN=C(N)N)C(=O)N[C@@H](Cc2c[nH]c3ccccc23)C(=O)NCC(N)=O)CCc2ccccc2C1` (stereo in doubt; form 2), the concentration giving a half-maximal response (EC50) was 1950 nM in [3] and 1000 nM on Melanocortin receptor 4 [4].

Turning to `CCCC(=O)N[C@@]1(C(=O)N[C@H](Cc2ccccc2)C(=O)N[C@@H](CCCN=C(N)N)C(=O)N[C@@H](Cc2c[nH]c3ccccc23)C(=O)NCC(N)=O)CCc2ccccc2C1` (stereo in doubt; form 2), the values for the concentration giving a half-maximal response (EC50) (in assay [3]; at Melanocortin receptor 4 [4]) were 5640 nM and 2940 nM, respectively.
